Test results taken from patent publication US12122728B2, “Use of substituted 2-thiazolines as nitrification inhibitors” (BASF SE, priority 2018, dated 2024).

System: nitrification
Experiment: Inhibition of nitrification in soil incubation test (ammonium and nitrate content after 14 days)
Settings: 100 g soil, 10 mg ammoniumsulfate-N, 20° C., 0 and 14 days; for NI* @ 3%: compound at 3% (of nitrogen N); for NI* @ 1%: compound at 1% of nitrogen N; for NI* @ 0.3%: compound at 0.3% of nitrogen N
Protocol: The compounds of the invention have been tested as follows in terms of the inhibition of nitrification:
100 g soil is filled into 500 ml plastic bottles (e.g. soil sampled from the field) and is moistened to 50% water holding capacity. The soil is incubated at 20° C. for two weeks to activate the microbial biomass. 1 ml test solution, containing the compound in the appropriate concentration (usually 0.3 or 1% of nitrogen N), or DMSO and 10 mg nitrogen in the form of ammoniumsulfate-N is added to the soil and everything mixed well. Bottles are capped but loosely to allow air exchange. The bottles are then incubated at 20° C. for 0 and 14 days.
For analysis, 300 ml of a 1% K2SO4-solution is added to the bottle containing the soil and shaken for 2 hours in a horizontal shaker at 150 rpm. Then the whole solution is filtered through a filter (Macherey-Nagel Filter MN 807%). Ammonium and nitrate content is then analyzed in the filtrate in an autoanalyzer at 550 nm (Merck, AA11).
The inhibition (NI® a specified concentration) is calculated as follows: […]

Row | SMILES | NI* @ 3% | NI* @ 1% | NI* @ 0.3%
1 | O=C(Nc1ccccc1)SC1=NCCS1 [Cmpd 5, 2-(Phenylaminocarbonylthio)-2-thiazoline] | 55 |  | 
2 | CC#CSC1=NCCS1 [Cmpd 2, 2-(Propynylthio)-2-thiazoline] | 76.3 |  | 
3 | CCSC1=NCCS1 [Cmpd. 9, 2-(Ethylthio)-2-thiazoline] |  | 22 | 
4 | CN(C)C(=S)SC1NCCS1 (stereo not drawn) [Cmpd. 11, 4,5-dihydro-3H-thiazol-2-yl N,N-dimethylcarbamodithioate] | 58.4 | 31.2 | 
5 | COC(=O)CSC1=NCCS1 [Cmpd. 10, (2-Thiazolin-2-ylthio)-acetic acid, methyl ester] |  | 21.5 | 
6 | Cc1cc(Cl)ccc1SC1=NCCS1 [Cmpd. 7, 2-(4-Chloro-2-methylphenylthio)-2-thiazoline] | 48.8 | 25.7 | 
7 | CSC1=NCCS1 [Cmpd 1, 2-(Methylthio)-2-thiazoline] | 88 | 90.2 | 60.1
8 | CCNC(=O)SC1=NCCS1 [Cmpd. 8, 2-(Ethylaminocarbonylthio)-2-thiazoline] | 43.1 |  | 
9 | CC1(C)CSC(S)=N1 [Cmpd 4, 4,4-Dimethyl-2-mercaptothiazoline] | 57.5 |  | 
10 | SC1=NCCS1 [Cmpd 3, 2-Mercapto-2-thiazoline] | 83.5 | 47 | 
11 | Br.O=C(CSC1=NCCS1)c1ccccc1 [Cmpd 6, 2-(2-Thiazolin-2-ylthio)-acetophenone, hydrobromide] | 53.9 | 31 | 21
